According to patent US4514330A, “Carbon-7-substituted atinomycin D analogue” (Trustees of Boston University, priority 1983, dated 1985):

Key:
DNA [1] = test: DNA-binding mode, covalent and noncovalent (statements)
DNA [2] = test: Thermal denaturation of DNA (ΔTm), stabilization of DNA helical structure on drug binding; set-up: species or system calf thymus; conditions: for DNA melting profile / ΔTm character of the DNA complex: thermal denaturation, words
Method: Thermal denaturation studies were carried out according to the procedure described in J. Med. Chem., Vol. 24, p. 1052 (1981). The ΔTm values in Table II give a measure of stabilization of DNA helical structure as a consequence of drug binding.
^a ΔTm = m of DNAdrug complex minus m of DNA.
Concentraiton of drug, 1.4 × 10^-4 M; of DNA (P), 1.4 ×
10^-3 M in 0.01 M phosphate buffer (pH 7.0), 5 × 10^-3 M in
EDTA and 5% dimethyl sulfoxide.
^d Highest dose tested. These values are derived at high temperatur
(67°-75° C.) and may not always correlate with the results
of other DNA-binding studies (e.g., absorptiometric or circular dichroic).
Melting points were obtained with a Thomas-Hoover melting point apparatus at a heating rate of 2° C./min. Column chromatography was accomplished with silica gel powder (Baker No. 3405, 60-20 mesh) or acid alumina (Woelm grade 1). Limited gel-filtration work was done on Sephadex LH-20, particle size 25-100 μm (Pharmacia Fine Chemicals). Thin-layer chromatography was performed on silica gel plates (E. M. Laboratories, Inc.). Solvent systems used were (A) butanol-formic acid-H2 O (75:13:12), (B) EtOAc-acetone (3:1), and (C) Cifferri, the organic phase of the mixture EtOAc-MeOH-H2 O (20:1:20). High-performance liquid chromatography was carried out on a Varian Model 5020 gradient liquid chromatograph equipped with CD-111L chromatography data system and fitted with Varian reversed-phase C18 column with isocratic solvent systems, CH3 -CN-5 mM NH4 OAc buffer, pH 6.4 (68:32 or 62:38), pressure 80-140 atm, flow rate 1.5 mL/min, with UV-visible variable and fixed wavelength dual detectors at 254 and 466 nm. Spectra were determined on the following instruments: IR spectra were obtained with a Perkin-Elmer Model 237 Infra Cord with KBr micropellets or chloroform solutions; UV-visible spectra were obtained on a Gilford 250 spectrophotometer, which, with the addition of a base-line reference compensator (Analog Multiplexer 6064) and thermoprogrammer, auto four cell programmer and thermoelectric cell holder 2577, was used to obtain thermal denaturation curves; NMR spectra were obtained on a JOEL FQ-90-90MHZ spectrometer equipped with Fourier transform; and CD spectra were obtained on a Cary 61 spectrophotometer. All elemental analyses were within ±0.4% of the theoretical values. Actinomycin D, batch no. NCS 3053, lot L554651-0-10, was provided by Natural Products Branch, National Cancer Institute, Silver Spring, Md. Calf thymus DNA type 1 was purchased from Sigma Chemical Co.

## Cc1c2oc3c(C)c(OCC4CO4)cc(C(=O)N[C@@H]4C(=O)N[C@H](C(C)C)C(=O)N5CCC[C@H]5C(=O)N(C)CC(=O)N(C)[C@@H](C(C)C)C(=O)O[C@@H]4C)c3nc-2c(C(=O)N[C@@H]2C(=O)N[C@H](C(C)C)C(=O)N3CCC[C@H]3C(=O)N(C)CC(=O)N(C)[C@@H](C(C)C)C(=O)O[C@@H]2C)c(N)c1=O (some centres unmarked) [Compound 3b, 7-(2,3-Epoxypropoxy)actinomycin D]
DNA [1]; 37° C. or higher, or longer incubation (~20 h)
  covalent binding to DNA: can bind covalently to DNA
DNA [1]; ambient temperature
  DNA-binding property relative to AMD: closely parallel to AMD
DNA [2]
  DNA melting profile / ΔTm character of the DNA complex: very broad

## Cc1c2oc3c(C)c(OCC(O)CO)cc(C(=O)N[C@@H]4C(=O)N[C@H](C(C)C)C(=O)N5CCC[C@H]5C(=O)N(C)CC(=O)N(C)[C@@H](C(C)C)C(=O)O[C@@H]4C)c3nc-2c(C(=O)N[C@@H]2C(=O)N[C@H](C(C)C)C(=O)N3CCC[C@H]3C(=O)N(C)CC(=O)N(C)[C@@H](C(C)C)C(=O)O[C@@H]2C)c(N)c1=O (some centres unmarked) [Compound 4b, 7-(2,3-Dihydroxypropoxy) actinomycin D]
DNA [2]; drug 1.4 × 10^-4 M, DNA (P) 1.4 × 10^-3 M, 0.01 M phosphate buffer pH 7.0, EDTA, 5% dimethyl sulfoxide
  Tm (ΔTm = Tm of DNA-drug complex minus Tm of DNA): 5.1 ± 0.15 °C
DNA [2]
  DNA melting profile / ΔTm character of the DNA complex: sharp and smooth
